# Tests used:
# [1] = test system: surinam grass; test: Test B pre/postemergence surinam grass; type: in vivo, Brachiaria decumbens
# In short: (§1)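 Herbicidal effect was estimated by eye on a ten-point control scale after plants spent twelve to sixteen days in a greenhouse following soil or foliar treatment. Foliar sprays targeted plants at one to four leaves; all doses were formulated in a non-phytotoxic solvent with surfactant.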
# [2] = test system: soybean; test: Test B pre/postemergence soybean; type: in vivo, Glycine max
# In short: as §1
# [3] = test system: cocklebur; test: Test B pre/postemergence cocklebur; type: in vivo, Xanthium strumarium
# In short: as §1
# [4] = test system: pigweed; test: Test B pre/postemergence pigweed; type: in vivo, Amaranthus retroflexus
# In short: as §1
# [5] = test system: purple nutsedge; test: Test B pre/postemergence purple nutsedge; type: in vivo, Cyperus rotundus
# In short: as §1
# [6] = test system: giant foxtail; test: Test B pre/postemergence giant foxtail; type: in vivo, Setaria faberii
# In short: as §1
# [7] = test system: wheat; test: Test B pre/postemergence wheat; type: in vivo, Triticum aestivum
# In short: as §1
# [8] = test system: crabgrass; test: Test B pre/postemergence crabgrass; type: in vivo, Digitaria sanguinalis
# In short: as §1
# [9] = test system: morningglory; test: Test B pre/postemergence morningglory; type: in vivo, Ipomoea hederacea
# In short: as §1
# [10] = test system: blackgrass; test: Test B pre/postemergence blackgrass; type: in vivo, Alopecurus myosuroides
# In short: as §1
# [11] = test system: velvetleaf; test: Test B pre/postemergence velvetleaf; type: in vivo, Abutilon theophrasti
# In short: as §1
# [12] = test system: rape; test: Test B pre/postemergence rape; type: in vivo, Brassica napus
# In short: as §1
# [13] = test system: bedstraw; test: Test B pre/postemergence bedstraw; type: in vivo, Galium aparine
# In short: as §1
# [14] = test system: wild oat; test: Test B pre/postemergence wild oat; type: in vivo, Avena fatua
# In short: as §1
# [15] = test system: corn; test: Test B pre/postemergence corn; type: in vivo, Zea mays
# In short: as §1
# [16] = test system: sugar beet; test: Test B pre/postemergence sugar beet; type: in vivo, Beta vulgaris
# In short: as §1
# [17] = Postemergence, Rate 62 g/ha, scale of 0 to 10, 0 is no effect, 10 is complete control
# [18] = Postemergence, Rate 125 g/ha, scale of 0 to 10 where 0 is no effect and 10 is complete control
# [19] = Postemergence, Rate 250 g/ha, scale of 0 to 10, 0 is no effect, 10 is complete control
# [20] = Postemergence, Rate 500 g/ha, scale of 0 to 10 where 0 is no effect and 10 is complete control
# [21] = Preemergence, Rate 62 g/ha, scale 0 to 10 (0 no effect, 10 complete control)
# [22] = Preemergence, Rate 125 g/ha, scale of 0 to 10 where 0 is no effect and 10 is complete control
# [23] = Preemergence, Rate 500 g/ha, scale of 0 to 10 where 0 is no effect and 10 is complete control
# [24] = Preemergence, Rate 62 g/ha, scale of 0 to 10 where 0 is no effect and 10 is complete control
# [25] = Preemergence, Rate 250 g/ha, scale 0 to 10 (0 no effect, 10 complete control)
# [26] = Rate 1000 g/ha, Preemergence, scale 0 to 10 (0 no effect, 10 complete control)
compound,measurement,setting,value
CC(C)N(C(=O)n1oc(=O)n(CCCC(F)(F)F)c1=O)c1ccccc1 [Compound 585],B. signalgrass plant response rating,[1]; [17],0
same,"Plant response rating, B. signalgrass",[1]; [18],0
same,B. signalgrass plant response rating,[1]; [19],0
same,"Plant response rating, B. signalgrass",[1]; [20],7
same,B. signalgrass plant response rating,[1]; [21],3
same,B. signalgrass plant response rating,[1]; [22],8
same,"B. signalgrass plant response rating (0 to 10 scale, 0 is no effect, 10 is complete control)","[1]; Preemergence, Rate 250 g/ha",9
same,B. signalgrass plant response rating,[1]; [23],9
same,"Plant response rating, Soybean",[2]; [18],0
same,Soybean plant response rating,[2]; [19],4
same,"Plant response rating, Soybean",[2]; [20],3
same,Soybean plant response rating,[2]; [21],0
same,Soybean plant response rating,[2]; [22],0
same,Soybean plant response rating,[2]; [23],3
same,Cocklebur plant response rating,[3]; [17],0
same,"Plant response rating, Cocklebur",[3]; [18],0
same,Cocklebur plant response rating,[3]; [19],0
same,"Plant response rating, Cocklebur",[3]; [20],7
same,Cocklebur plant response rating,[3]; [21],0
same,Cocklebur plant response rating,[3]; [22],0
same,Cocklebur plant response rating (0 to 10 scale),"[3]; Preemergence, Rate 250 g/ha",0
same,Cocklebur plant response rating,[3]; [23],3
same,"Plant response rating, Redroot pigweed",[4]; [18],0
same,Redroot pigweed plant response rating,[4]; [19],3
same,"Plant response rating, Redroot pigweed",[4]; [20],7
same,Redroot pigweed plant response rating,[4]; [21],6
same,Redroot pigweed plant response rating,[4]; [22],9
same,Redroot pigweed plant response rating,[4]; [23],10
same,Nutsedge plant response rating,[5]; [17],0
same,"Plant response rating, Nutsedge",[5]; [18],0
same,Nutsedge plant response rating,[5]; [19],0
same,"Plant response rating, Nutsedge",[5]; [20],0
same,Nutsedge plant response rating,[5]; [21],0
same,Nutsedge plant response rating,[5]; [22],0
same,Nutsedge plant response rating,[5]; [23],10
same,Giant foxtail plant response rating,[6]; [17],6
same,"Plant response rating, Giant foxtail",[6]; [18],6
same,Giant foxtail plant response rating,[6]; [19],8
same,"Plant response rating, Giant foxtail",[6]; [20],9
same,Giant foxtail plant response rating,[6]; [21],7
same,Giant foxtail plant response rating,[6]; [22],6
same,Giant foxtail plant response rating,[6]; [23],10
same,"Plant response rating, Wheat",[7]; [18],2
same,Wheat plant response rating,[7]; [19],2
same,"Plant response rating, Wheat",[7]; [20],4
same,Wheat plant response rating,[7]; [21],0
same,Wheat plant response rating,[7]; [22],3
same,Wheat plant response rating,[7]; [23],3
same,"Plant response rating, Crabgrass",[8]; [18],5
same,Crabgrass plant response rating,[8]; [19],9
same,"Plant response rating, Crabgrass",[8]; [20],9
same,Crabgrass plant response rating,[8]; [21],5
same,Crabgrass plant response rating,[8]; [22],8
same,Crabgrass plant response rating,[8]; [23],10
same,Morningglory plant response rating,[9]; [17],4
same,"Plant response rating, Morningglory",[9]; [18],8
same,Morningglory plant response rating,[9]; [19],10
same,"Plant response rating, Morningglory",[9]; [20],10
same,Morningglory plant response rating,[9]; [21],0
same,Morningglory plant response rating,[9]; [22],0
same,Morningglory plant response rating,[9]; [23],5
same,Blackgrass plant response rating,[10]; [17],3
same,"Plant response rating, Blackgrass",[10]; [18],6
same,Blackgrass plant response rating,[10]; [19],6
same,"Plant response rating, Blackgrass",[10]; [20],7
same,Blackgrass plant response rating,[10]; [21],3
same,Blackgrass plant response rating,[10]; [22],8
same,Blackgrass plant response rating (0 to 10 scale),"[10]; Preemergence, Rate 250 g/ha",8
same,Blackgrass plant response rating,[10]; [23],8
same,"Plant response rating, Velvetleaf",[11]; [18],3
same,Velvetleaf plant response rating,[11]; [19],4
same,"Plant response rating, Velvetleaf",[11]; [20],5
same,Velvetleaf plant response rating,[11]; [21],0
same,Velvetleaf plant response rating,[11]; [22],0
same,Velvetleaf plant response rating,[11]; [23],6
same,Rape plant response rating,[12]; [17],0
same,"Plant response rating, Rape",[12]; [18],3
same,Rape plant response rating,[12]; [19],5
same,"Plant response rating, Rape",[12]; [20],5
same,Rape plant response rating,[12]; [21],3
same,Rape plant response rating,[12]; [22],8
same,Rape plant response rating,[12]; [23],10
same,Bedstraw plant response rating,[13]; [17],0
same,"Plant response rating, Bedstraw",[13]; [18],8
same,Bedstraw plant response rating,[13]; [21],7
same,Bedstraw plant response rating,[13]; [22],8
same,Bedstraw plant response rating (0 to 10 scale),"[13]; Preemergence, Rate 250 g/ha",9
same,Bedstraw plant response rating,[13]; [23],8
same,"Plant response rating, Wild oats",[14]; [18],0
same,Wild oats plant response rating,[14]; [19],0
same,"Plant response rating, Wild oats",[14]; [20],2
same,Wild oats plant response rating,[14]; [21],0
same,Wild oats plant response rating,[14]; [22],3
same,Wild oats plant response rating,[14]; [23],9
same,Corn plant response rating,[15]; [17],0
same,"Plant response rating, Corn",[15]; [18],0
same,Corn plant response rating,[15]; [19],0
same,"Plant response rating, Corn",[15]; [20],5
same,Corn plant response rating,[15]; [21],0
same,Corn plant response rating,[15]; [22],2
same,Corn plant response rating (0 to 10 scale),"[15]; Preemergence, Rate 250 g/ha",3
same,Corn plant response rating,[15]; [23],5
same,"Plant response rating, Sugarbeets",[16]; [18],2
same,Sugarbeets plant response rating,[16]; [19],4
same,"Plant response rating, Sugarbeets",[16]; [20],7
same,Sugarbeets plant response rating,[16]; [21],0
same,Sugarbeets plant response rating,[16]; [22],3
same,Sugarbeets plant response rating,[16]; [23],6
CC(C)N(C(=O)n1oc(=O)n(C(C)C=O)c1=O)c1ccccc1 (stereo not shown) [Compound 693],B. signalgrass plant response rating,[1]; [24],0
same,"Plant response rating, B. signalgrass",[1]; [22],0
same,"Plant response rating, B. signalgrass",[1]; [25],0
same,"Plant response rating, B. signalgrass",[1]; [23],0
same,Soybean plant response rating,[2]; [24],0
same,"Plant response rating, Soybean",[2]; [22],0
same,Cocklebur plant response rating,[3]; [24],0
same,"Plant response rating, Cocklebur",[3]; [22],0
same,"Plant response rating, Cocklebur",[3]; [25],0
same,"Plant response rating, Cocklebur",[3]; [23],0
same,Redroot pigweed plant response rating,[4]; [24],0
same,"Plant response rating, Redroot pigweed",[4]; [22],0
same,"Plant response rating, Nutsedge",[5]; [22],0
same,Giant foxtail plant response rating,[6]; [24],0
same,"Plant response rating, Giant foxtail",[6]; [22],0
same,Wheat plant response rating,[7]; [24],0
same,"Plant response rating, Wheat",[7]; [22],0
same,Crabgrass plant response rating,[8]; [24],0
same,"Plant response rating, Crabgrass",[8]; [22],0
same,"Plant response rating, Crabgrass",[8]; [25],0
same,Morningglory plant response rating,[9]; [24],0
same,"Plant response rating, Morningglory",[9]; [22],0
same,Blackgrass plant response rating,[10]; [24],0
same,"Plant response rating, Blackgrass",[10]; [22],0
same,"Plant response rating, Blackgrass",[10]; [25],0
same,"Plant response rating, Blackgrass",[10]; [23],2
same,Velvetleaf plant response rating,[11]; [24],0
same,"Plant response rating, Velvetleaf",[11]; [22],0
same,Rape plant response rating,[12]; [24],0
same,"Plant response rating, Rape",[12]; [22],0
same,Bedstraw plant response rating,[13]; [24],0
same,"Plant response rating, Bedstraw",[13]; [22],0
same,"Plant response rating, Bedstraw",[13]; [25],0
same,"Plant response rating, Bedstraw",[13]; [23],0
same,Wild oats plant response rating,[14]; [24],0
same,"Plant response rating, Wild oats",[14]; [22],0
same,Corn plant response rating,[15]; [24],0
same,"Plant response rating, Corn",[15]; [22],0
same,"Plant response rating, Corn",[15]; [25],0
same,Sugarbeets plant response rating,[16]; [24],0
same,"Plant response rating, Sugarbeets",[16]; [22],0
COP(=O)(CCn1c(=O)on(C(=O)N(c2ccc(Cl)cc2)C(C)C)c1=O)OC [Compound 698],"Plant response rating, B. signalgrass",[1]; [22],0
same,"Plant response rating, B. signalgrass",[1]; [25],3
same,"Plant response rating, B. signalgrass",[1]; [23],5
same,"Plant response rating, B. signalgrass",[1]; [26],4
same,"Plant response rating, Soybean",[2]; [22],0
same,"Plant response rating, Soybean",[2]; [26],3
same,"Plant response rating, Cocklebur",[3]; [22],0
same,"Plant response rating, Cocklebur",[3]; [25],0
same,"Plant response rating, Cocklebur",[3]; [23],0
same,"Plant response rating, Cocklebur",[3]; [26],0
same,"Plant response rating, Redroot pigweed",[4]; [22],0
same,"Plant response rating, Redroot pigweed",[4]; [26],0
same,"Plant response rating, Nutsedge",[5]; [22],0
same,"Plant response rating, Giant foxtail",[6]; [22],0
same,"Plant response rating, Giant foxtail",[6]; [26],10
same,"Plant response rating, Wheat",[7]; [22],0
same,"Plant response rating, Wheat",[7]; [26],6
same,"Plant response rating, Crabgrass",[8]; [22],3
same,"Plant response rating, Crabgrass",[8]; [25],8
same,"Plant response rating, Crabgrass",[8]; [26],9
same,"Plant response rating, Morningglory",[9]; [22],0
same,"Plant response rating, Morningglory",[9]; [26],0
same,"Plant response rating, Blackgrass",[10]; [22],0
same,"Plant response rating, Blackgrass",[10]; [25],2
same,"Plant response rating, Blackgrass",[10]; [23],8
same,"Plant response rating, Blackgrass",[10]; [26],9
same,"Plant response rating, Velvetleaf",[11]; [22],0
same,"Plant response rating, Velvetleaf",[11]; [26],0
same,"Plant response rating, Rape",[12]; [22],0
same,"Plant response rating, Rape",[12]; [26],8
same,"Plant response rating, Bedstraw",[13]; [22],0
same,"Plant response rating, Bedstraw",[13]; [25],0
same,"Plant response rating, Bedstraw",[13]; [23],0
same,"Plant response rating, Bedstraw",[13]; [26],0
same,"Plant response rating, Wild oats",[14]; [22],0
same,"Plant response rating, Wild oats",[14]; [26],10
same,"Plant response rating, Corn",[15]; [22],0
same,"Plant response rating, Corn",[15]; [25],0
same,"Plant response rating, Corn",[15]; [26],0
same,"Plant response rating, Sugarbeets",[16]; [22],0
same,"Plant response rating, Sugarbeets",[16]; [26],0
